Experimental data as given in US20200223889A1, “Bicyclic Compounds Capable of Binding to Melanocortin 4 Receptor” (Novo Nordisk A/S, priority 2017, published 2020).
Positions of bridges follow the written chain, without caps; N, C: chain ends. Non-standard residues stand in square brackets, D forms with d. Residues, ends and D or L forms follow the SMILES beside them. Thz = O=C(O)[C@@H]1CSCN1

Assay: In vivo obese model: DIO mice treated once daily, food intake and body weight
Experimental: Stimulation of MC4R signaling is reported to modulate energy intake and expenditure in both humans and rodents. In order to test the effect of MC4R agonists on food intake and body weight, diet-induced obese (DIO) mice were treated once daily with compounds to assess weight loss efficacy.
All animal protocols were approved by an Institutional Animal Care and Use Committee and Ethical Review Committee of Novo Nordisk. Animals were housed according to Novo Nordisk rodent housing standards, and were given ad libitum access to food and water under controlled lighting (12 h:12 h light/dark cycle; lights off 17:00-05:00), temperature (23±2° C.) and relative humidity (50±20%) conditions. Diet-induced obese (DIO) male C57BL/6J mice maintained on a high fat diet (60% kcal fat, 5.24 kcal/gram; RD12492, Research Diets, New Brunswick, N.J., USA) for 22 weeks were obtained from Charles River (France). Upon arrival, the mice were single-housed (one mouse per cage) and allowed to acclimate to their new environment for two weeks prior to the start of treatment.
Prior to initiation of the study, animals were single-housed and acclimated to handling for 7 days. The DIO mice were distributed into groups (n=8/group) such that statistical variations in the mean and standard deviations of fat mass and body weight were minimized between groups. Animals were dosed once daily, subcutaneously at 16:00 with either vehicle or compound
Body weight and food intake were measured immediately prior to dosing each day. The average starting body weight of the mice prior to start of treatment was 47.2±0.2 grams.

[1] = 0.3 μmol/kg once daily s.c., day 1, mean ± SEM
[2] = 0.3 μmol/kg once daily s.c., day 2, mean ± SEM
[3] = 0.3 μmol/kg once daily s.c., day 3, mean ± SEM
[4] = 0.3 μmol/kg once daily s.c., day 4, mean ± SEM
[5] = 0.3 μmol/kg once daily s.c., day 5, mean ± SEM
[6] = 0.3 μmol/kg once daily s.c., day 6, mean ± SEM
[7] = 0.3 μmol/kg once daily s.c., day 7, mean ± SEM
[8] = 0.3 μmol/kg once daily s.c., day 8, mean ± SEM
[9] = 0.3 μmol/kg once daily s.c., day 9, mean ± SEM
[10] = 0.3 μmol/kg once daily s.c., day 10, mean ± SEM
[11] = 0.3 μmol/kg once daily s.c., day 11, mean ± SEM
[12] = 0.3 μmol/kg once daily s.c., day 12, mean ± SEM
[13] = 0.3 μmol/kg once daily s.c., day 13, mean ± SEM
[14] = 0.3 μmol/kg once daily s.c., day 14, mean ± SEM
[15] = 0.3 μmol/kg once daily s.c., day 15, mean ± SEM
[16] = 0.3 μmol/kg once daily s.c., day 16, mean ± SEM
[17] = 0.3 μmol/kg once daily s.c., day 17, mean ± SEM
[18] = 0.3 μmol/kg once daily s.c., day 18, mean ± SEM
[19] = 0.3 μmol/kg once daily s.c., day 19, mean ± SEM
[20] = 0.3 μmol/kg once daily s.c., day 20, mean ± SEM
[21] = 1.5 μmol/kg once daily s.c., day 1, mean ± SEM
[22] = 1.5 μmol/kg once daily s.c., day 2, mean ± SEM
[23] = 1.5 μmol/kg once daily s.c., day 3, mean ± SEM
[24] = 1.5 μmol/kg once daily s.c., day 4, mean ± SEM
[25] = 1.5 μmol/kg once daily s.c., day 5, mean ± SEM
[26] = 1.5 μmol/kg once daily s.c., day 6, mean ± SEM
[27] = 1.5 μmol/kg once daily s.c., day 7, mean ± SEM
[28] = 1.5 μmol/kg once daily s.c., day 8, mean ± SEM
[29] = 1.5 μmol/kg once daily s.c., day 9, mean ± SEM
[30] = 1.5 μmol/kg once daily s.c., day 10, mean ± SEM
[31] = 1.5 μmol/kg once daily s.c., day 11, mean ± SEM
[32] = 1.5 μmol/kg once daily s.c., day 12, mean ± SEM
[33] = 1.5 μmol/kg once daily s.c., day 13, mean ± SEM
[34] = 1.5 μmol/kg once daily s.c., day 14, mean ± SEM
[35] = 1.5 μmol/kg once daily s.c., day 15, mean ± SEM
[36] = 1.5 μmol/kg once daily s.c., day 16, mean ± SEM
[37] = 1.5 μmol/kg once daily s.c., day 17, mean ± SEM
[38] = 1.5 μmol/kg once daily s.c., day 18, mean ± SEM
[39] = 1.5 μmol/kg once daily s.c., day 19, mean ± SEM
[40] = 1.5 μmol/kg once daily s.c., day 20, mean ± SEM

C[C@@H]1NC(=O)[C@H](CCCCN)NC(=O)[C@@H]2CSSC[C@H](NC(=O)[C@H](Cc3c[nH]c4ccccc34)NC(=O)[C@H](C)NC(=O)[C@@H](CCCCN)NC1=O)C(=O)N1CSC[C@H]1C(=O)N[C@@H](Cc1c[nH]cn1)C(=O)N[C@H](Cc1ccccc1)C(=O)N[C@@H](Cc1c[nH]cn1)C(=O)N[C@@H](Cc1c[nH]c3ccccc13)C(=O)N2 [Chem. 114, c[c[Cys-THAZ-His-D-Phe-His-Trp- Cys]-Lys-Ala-D-Lys-Ala-Trp]] (cyclo(AWC[Thz]H[dF]HWCKA[dK]); disulfide 3-9)
Daily food intake, kcals (0.3 μmol/kg once daily s.c., day 0, mean ± SEM): 13.4 ± 0.6 kcals | Cumulative food intake, kcals [1]: 7.7 ± 0.5 kcals | Daily food intake, kcals [1]: 7.7 ± 0.5 kcals | Relative body weight, % initial [1]: 96 ± 0.3 % initial | Cumulative food intake, kcals [2]: 13.6 ± 1.5 kcals | Daily food intake, kcals [2]: 6 ± 1.2 kcals | Relative body weight, % initial [2]: 94.2 ± 0.3 % initial | Cumulative food intake, kcals [3]: 23.5 ± 2.1 kcals | Daily food intake, kcals [3]: 9.9 ± 0.9 kcals | Relative body weight, % initial [3]: 93.6 ± 0.5 % initial | Cumulative food intake, kcals [4]: 34.3 ± 2.5 kcals | Daily food intake, kcals [4]: 10.7 ± 0.7 kcals | Relative body weight, % initial [4]: 91.8 ± 0.7 % initial | Cumulative food intake, kcals [5]: 44.8 ± 2.9 kcals | Daily food intake, kcals [5]: 10.5 ± 0.8 kcals | Relative body weight, % initial [5]: 91.1 ± 0.6 % initial | Cumulative food intake, kcals [6]: 55.6 ± 3.7 kcals | Daily food intake, kcals [6]: 10.8 ± 0.9 kcals | Relative body weight, % initial [6]: 89.9 ± 0.9 % initial | Cumulative food intake, kcals [7]: 67.7 ± 4.3 kcals | Daily food intake, kcals [7]: 12.1 ± 0.9 kcals | Relative body weight, % initial [7]: 89.5 ± 0.9 % initial | Cumulative food intake, kcals [8]: 78.8 ± 4.5 kcals | Daily food intake, kcals [8]: 11.1 ± 0.6 kcals | Relative body weight, % initial [8]: 88.6 ± 0.9 % initial | Cumulative food intake, kcals [9]: 90.8 ± 4.7 kcals | Daily food intake, kcals [9]: 12.1 ± 0.6 kcals | Relative body weight, % initial [9]: 88.6 ± 0.9 % initial | Cumulative food intake, kcals [10]: 103.2 ± 5.3 kcals | Daily food intake, kcals [10]: 12.3 ± 0.8 kcals | Relative body weight, % initial [10]: 87.7 ± 1.1 % initial | Cumulative food intake, kcals [11]: 114.2 ± 5.8 kcals | Daily food intake, kcals [11]: 11 ± 0.7 kcals | Relative body weight, % initial [11]: 88.2 ± 1.1 % initial | Cumulative food intake, kcals [12]: 127.6 ± 6.1 kcals | Daily food intake, kcals [12]: 13.4 ± 0.6 kcals | Relative body weight, % initial [12]: 87.2 ± 1.1 % initial | Cumulative food intake, kcals [13]: 140.8 ± 6.4 kcals | Daily food intake, kcals [13]: 13.2 ± 0.7 kcals | Relative body weight, % initial [13]: 87.1 ± 1.2 % initial | Cumulative food intake, kcals [14]: 153.9 ± 6.9 kcals | Daily food intake, kcals [14]: 13.2 ± 0.7 kcals | Relative body weight, % initial [14]: 87.3 ± 1.3 % initial | Cumulative food intake, kcals [15]: 167.5 ± 7.5 kcals | Daily food intake, kcals [15]: 13.6 ± 0.7 kcals | Relative body weight, % initial [15]: 87.4 ± 1.3 % initial | Cumulative food intake, kcals [16]: 181.2 ± 7.8 kcals | Daily food intake, kcals [16]: 13.7 ± 0.5 kcals | Relative body weight, % initial [16]: 87.5 ± 1.3 % initial | Cumulative food intake, kcals [17]: 195.8 ± 7.9 kcals | Daily food intake, kcals [17]: 14.5 ± 0.5 kcals | Relative body weight, % initial [17]: 87.4 ± 1.3 % initial | Cumulative food intake, kcals [18]: 211 ± 8.3 kcals | Daily food intake, kcals [18]: 15.3 ± 0.6 kcals | Relative body weight, % initial [18]: 87.9 ± 1.4 % initial | Cumulative food intake, kcals [19]: 225.4 ± 8.7 kcals | Daily food intake, kcals [19]: 14.3 ± 0.8 kcals | Relative body weight, % initial [19]: 88.6 ± 1.4 % initial | Cumulative food intake, kcals [20]: 241.2 ± 8.5 kcals | Daily food intake, kcals [20]: 15.9 ± 0.5 kcals | Relative body weight, % initial [20]: 88.9 ± 1.3 % initial | reduction in body weight, relative to initial body weight (0.3 μmol/kg once daily subcutaneously): 11.1±1.3% | Daily food intake, kcals (1.5 μmol/kg once daily s.c., day 0, mean ± SEM): 13.9 ± 1.3 kcals | Cumulative food intake, kcals [21]: 5.5 ± 0.8 kcals | Daily food intake, kcals [21]: 5.5 ± 0.8 kcals | Relative body weight, % initial [21]: 95.1 ± 0.4 % initial | Cumulative food intake, kcals [22]: 10.7 ± 1.4 kcals | Daily food intake, kcals [22]: 5.2 ± 0.8 kcals | Relative body weight, % initial [22]: 93 ± 0.4 % initial | Cumulative food intake, kcals [23]: 19.8 ± 2.2 kcals | Daily food intake, kcals [23]: 9.1 ± 0.8 kcals | Relative body weight, % initial [23]: 92.1 ± 0.6 % initial | Cumulative food intake, kcals [24]: 30.5 ± 3.1 kcals | Daily food intake, kcals [24]: 10.7 ± 1.2 kcals | Relative body weight, % initial [24]: 91.3 ± 0.7 % initial | Cumulative food intake, kcals [25]: 41.1 ± 4 kcals | Daily food intake, kcals [25]: 10.7 ± 0.9 kcals | Relative body weight, % initial [25]: 90.6 ± 0.9 % initial | Cumulative food intake, kcals [26]: 51.7 ± 4.6 kcals | Daily food intake, kcals [26]: 10.6 ± 0.8 kcals | Relative body weight, % initial [26]: 89.6 ± 0.8 % initial | Cumulative food intake, kcals [27]: 61.9 ± 5.4 kcals | Daily food intake, kcals [27]: 10.2 ± 1 kcals | Relative body weight, % initial [27]: 88.6 ± 0.9 % initial | Cumulative food intake, kcals [28]: 73.8 ± 5.8 kcals | Daily food intake, kcals [28]: 11.9 ± 0.7 kcals | Relative body weight, % initial [28]: 87.8 ± 0.8 % initial | Cumulative food intake, kcals [29]: 86.2 ± 6.4 kcals | Daily food intake, kcals [29]: 12.4 ± 0.8 kcals | Relative body weight, % initial [29]: 87.8 ± 1 % initial | Cumulative food intake, kcals [30]: 97.5 ± 7.5 kcals | Daily food intake, kcals [30]: 11.3 ± 1.2 kcals | Relative body weight, % initial [30]: 87.1 ± 0.9 % initial | Cumulative food intake, kcals [31]: 110.4 ± 8.4 kcals | Daily food intake, kcals [31]: 12.8 ± 1.4 kcals | Relative body weight, % initial [31]: 86.9 ± 0.9 % initial | Cumulative food intake, kcals [32]: 123.3 ± 9.2 kcals | Daily food intake, kcals [32]: 12.9 ± 0.9 kcals | Relative body weight, % initial [32]: 86.6 ± 1.1 % initial | Cumulative food intake, kcals [33]: 136.4 ± 9.8 kcals | Daily food intake, kcals [33]: 13.2 ± 0.7 kcals | Relative body weight, % initial [33]: 86.7 ± 1.3 % initial | Cumulative food intake, kcals [34]: 149.3 ± 10.7 kcals | Daily food intake, kcals [34]: 12.9 ± 1.1 kcals | Relative body weight, % initial [34]: 86.7 ± 1.3 % initial | Cumulative food intake, kcals [35]: 162.8 ± 11.1 kcals | Daily food intake, kcals [35]: 13.5 ± 0.6 kcals | Relative body weight, % initial [35]: 86 ± 1.2 % initial | Cumulative food intake, kcals [36]: 175.1 ± 11.7 kcals | Daily food intake, kcals [36]: 12.2 ± 0.7 kcals | Relative body weight, % initial [36]: 86 ± 1.3 % initial | Cumulative food intake, kcals [37]: 188.7 ± 12.2 kcals | Daily food intake, kcals [37]: 13.6 ± 0.8 kcals | Relative body weight, % initial [37]: 85.7 ± 1.2 % initial | Cumulative food intake, kcals [38]: 202.5 ± 13.1 kcals | Daily food intake, kcals [38]: 13.8 ± 1 kcals | Relative body weight, % initial [38]: 85.9 ± 1.2 % initial | Cumulative food intake, kcals [39]: 217 ± 13.9 kcals | Daily food intake, kcals [39]: 14.5 ± 0.9 kcals | Relative body weight, % initial [39]: 86.4 ± 1.3 % initial | Cumulative food intake, kcals [40]: 231.8 ± 13.6 kcals | Daily food intake, kcals [40]: 14.8 ± 0.8 kcals | Relative body weight, % initial [40]: 86.8 ± 1.3 % initial | reduction in body weight, relative to initial body weight (1.5 μmol/kg once daily subcutaneously): 13.2±1.3% | food intake (in words) (once daily subcutaneous treatment): transient reduction in food intake that returned to baseline levels during the second week of treatment
